Data set [1] deals with CD34^+ cells from adult bone marrow. Briefly: Lentiviral vector transduction of adult bone marrow CD34+, CD34+CD38- and CD34+CD38+ cells with or without dmPGE2. Format: cell-based, human. Particulars: CD34^+ or CD34^+CD38^− HSPC from adult bone marrow after dmPGE2 treatment (10 μM). The method, then:
The experiments were carried out as follows: CD34^+ cells from N=3 bone marrow donors (Lonza) were thawed and put into culture in Stem span serum free expansion medium (SFEM) under the following conditions: pre-stimulation in 300 ng/mL SCF, 300 ng/mL FLT3L, 100 ng/mL TPO, 60 ng/mL IL3 for 18 h. Cells were then divided into 3 groups: bulk CD34^+, CD34^+CD38^−, CD34^+CD38^+ (FACS-sorted on a MoFlow cytometer after marking with CD38-APC antibody from BD Bioscience). We then added dmPGE2 (10 μM) or DMSO to the cultures, and pre-stimulated the cells for another 16 h before they were transduced with a GFP-expressing lentiviral vector (LV.PGK.GFP) at 10^8 TU/mL. In vitro culture assays were performed, either as liquid culture for 14 days in IMDM+10% FCS (left) or colony forming cell (CFC) assay (right; plated 800 cells/mL methocult, analysed colony outgrowth after 14 d). Vector copy number was assessed by qPCR as described in Gentner B et al. Nat. Methods 2009; 6:63-66.

Data set [2] deals with CD34^+ cells from G-CSF mobilised peripheral blood (mPB). The experiment in a line: VCN in long-term repopulating cells after xenotransplantation of mPB CD34+ cells transduced by protocols P0-P4. Format: in vivo, NSG mice. The procedure:
CD34^+ cells from G-CSF mobilised peripheral blood (mPB) were thawed and placed in culture (10^6 cells/mL) in CellGro medium supplemented with SCF (300 ng/mL), FLT3L (300 ng/mL), TPO (100 ng/mL) and IL-3 (60 ng/mL). Cells were transduced with third generation lentiviral vectors coding for gp91^phox (vectors suitable for the gene therapy of chronic granulomatous disease) at a dose of 10^8 TU/mL. The different protocols used for ex vivo transduction of mPB CD34+ cells are illustrated in (E) and differ in terms of the presence (P1, P2, P3) or absence (P0, P4) of dmPGE2, the timing of dmPGE2 addition (after thawing: P1, P2; 120 min before transduction: P3) and the duration of culture (24 h: P2, P4 versus 44 h: P0, P1, P3).
(F) 10×10^6 CD34^+ mPB cells from donor 1 were thawed, divided into 4 equal parts and transduced with the SP146/gp91.cogp91^phox. 126T LV from an industry-grade production (Molmed Spa) according to P0, P1, P2 or P3. The outgrowth of 5×10^5 cells put into culture at time zero was injected per mouse (actual numbers: P0 3.66×10^5 per mouse; P1: 4.66×10^5 per mouse; P2: 3.0×10^5 per mouse; P3: 4.86×10^5 per mouse). Mice were euthanised at 20 weeks post transplantation. BM was flushed and pooled from the mice belonging to the same group (P0, P1, P2: n=5 per group; P3: n=3 per group) and depleted for mouse cells. Enriched human cells were then subjected to vector copy number (VCN) analysis using primers specific for human cells (5 technical replicates).
A replicate experiment was performed using mPB CD34^+ cells from a second donor (G). 15×10^6 CD34^+ mPB cells were thawed, divided into 4 equal parts and transduced with the SP146/gp91.gp91^phoxTGT.126T LV (a vector suitable for CGD gene therapy) coming from a lab-grade production according to protocols P0, P1 (44 h−/+dmPGE2) or P4, P2 (24 h−/+dmPGE2). The outgrowth of 9×10^5 cells put into culture at time zero was injected per mouse (actual numbers: P0 10×10^5 per mouse; P1: 8.2×10^5 per mouse; P4: 4.5×10^5 per mouse; P2: 5.3×10^5 per mouse). VCN was analysed on BM cells from each single mouse 13 weeks after transplantation using a qPCR assay specific for human cells.

The test system of data set [3] is cord blood CD34^+ cells. The experiment in a line: Lentiviral vector transduction of cord blood CD34+ cells with or without dmPGE2, VCN by qPCR (in vitro). It counts as cell-based, human. The procedure:
CD34^+ cells from n=4 cord blood donors (Lonza) were thawed and put into culture in Stem span serum free expansion medium (SFEM) supplemented with 100 ng/mL SCF, 100 ng/mL FLT3L, 50 ng/mL TPO, 50 ng/mL IL6 for 18 h (pre-stimulation), in the presence or absence of 10 μM dmPGE2. After pre-stimulation, cells were incubated with 10^8 TU/mL of a lentiviral vector for 24 h. Cells were then cultured in vitro (n=5 replicates) for 14 days in IMDM+10% FCS before vector copy number (VCN) was measured by qPCR as described in Gentner, B. et al. (2009) Nat.

Data set [4] concerns cord blood CD34^+ cells. Briefly: VCN and engraftment after xenotransplantation of dmPGE2-stimulated, LV-transduced cord blood CD34+ cells into NSG mice. It counts as in vivo. The procedure:
Cord blood CD34^+ cells were thawed and placed in culture (10^6 cells/mL) in Stem span serum free medium (SFEM) supplemented with 100 ng/mL SCF, 100 ng/mL FLT3L, 50 ng/mL TPO, 50 ng/mL IL-6 for 18 h (pre-stimulation) and subsequently transduced with a lentiviral vector at 10^8 TU/mL for 24 h. Cells were injected into sublethally irradiated, 8 week old NSG mice (1.5-3×10^5 cells per mouse), and vector copy number (VCN) was analysed in the pooled blood or bone marrow of each group of mice at the indicated time-points using primers specific for human cells. 3 replicate experiments are shown. Left graph: Cells were transduced with a PGK.TRAIL LV, and 10 μM dmPGE2 (dmPGE2 group, n=5 mice) or DMSO (Ctrl group, n=5 mice) was added directly after thawing (t=−16 h with respect to vector addition). Middle graph: Cells were transduced with a PGK.TRAIL LV, and 10 μM dmPGE2 (dmPGE2 group n=5) or DMSO (Ctrl group; n=8) was added 120 min before vector addition (t=−2 h). […], and 10 μM dmPGE2 (dmPGE2 group n=5) or DMSO (Ctrl group; n=5) was added 120 min before vector addition (t=−2 h). In all three experiments, the benefit in transduction observed in vitro was stably maintained long-term, up to 18 weeks after xenotransplantation.

The subject of the next data set is human HSPCs. The experiment in a line: Timing of dmPGE2 stimulation and transducability of human HSPCs by lentiviral vectors. Format: cell-based. The procedure:
This experiment was carried out on 1 cord blood and 1 mobilised peripheral blood donor, the relative VCN is shown (normalised to its respective control).

The subject of data set [5] is G-CSF-mobilised CD34+ peripheral blood stem cells. The experiment in a line: Lentiviral vector transduction of G-CSF-mobilised CD34+ peripheral blood stem cells with or without dmPGE2 (in vitro). Format: cell-based, human. Conditions: pre-stimulated with dmPGE2, 18 h. The method, then:
N=6 transductions of 3 mobilised peripheral blood donors. Cells were thawed, resuspended in serum-free, commercial culture medium (e.g. CellGro) at a density of 10^6 cells/mL in the presence of the following cytokines: 300 ng/mL SCF, 300 ng/mL FLT3L, 100 ng/mL TPO, 60 ng/mL IL-3, and prestimulated for 18 h, in the absence (control, Ctrl) or presence of dmPGE2. Transduction was performed with lentiviral vectors (3 different batches) at 10^8 TU/mL for 12-24 h. Vector copy number was assessed by qPCR after 14 days of in vitro culture in IMDM and 10% FCS. Relative VCN (normalised to the Control group) is shown.

In the case of `CCCCC(C)(C)[C@H](O)/C=C/[C@H]1[C@H](O)CC(=O)[C@@H]1C/C=C\CCCC(=O)O` [dmPGE2, 16,16-dimethyl prostaglandin E2], the “increased gene transfer efficiency” value (in data set [1]; in the data set with cord blood CD34^+ cells [3] (CD34^+ or CD34^+CD38^− HSPC from cord blood after dmPGE2 treatment)) was 1.5 fold in each case. In addition, in data set [2] (P1 condition (dmPGE2 after thawing, 44 h culture), donor 2, BM 13 weeks after transplantation), the “sustained gain in transduction efficiency in long-term repopulating cells” value is listed as “did not result in a sustained gain in transduction efficiency”. The “transduction-promoting effect in long-term repopulating cells” value in data set [2] (P2 (24 h culture with dmPGE2), donor 2, BM 13 weeks after transplantation) is “increased transduction well above levels achieved by a 44 h standard protocol”. Moreover, the “increase in VCN into long-term repopulating cells” value in data set [2] (P2 condition (dmPGE2 after thawing, 24 h culture), donor 1, BM 20 weeks post transplantation) is about 50%. The “increase in VCN, P3 protocol” value in data set [2] (P3 (dmPGE2 120 min before transduction, 44 h culture), donor 1, BM 20 weeks) is “not statistically significant”. The “increase in gene transfer (VCN)” value with cord blood CD34^+ cells [3] (10 μM dmPGE2 during 18 h pre-stimulation, LV 10^8 TU/mL 24 h, VCN after 14 days culture) was determined as 50%. Further, the “time over which benefit in transduction was stably maintained after xenotransplantation” value in the data set on cord blood CD34^+ cells [4] (10 μM dmPGE2 at t=−16 h or t=−2 h, three experiments) is “up to 18 weeks”. In the data set on cord blood CD34^+ cells [4] (NSG mice, dmPGE2-treated cells), the engraftment levels entry is “not negatively affected”. Moreover, the “time over which difference in VCN was maintained after transplantation into NSG mice” value with cord blood CD34^+ cells [4] (after transplantation of dmPGE2-treated cells) is listed as “more than 4 months”. Further, in the data set on human HSPCs (dmPGE2 added 2 h before LV exposure (t=−2 h), 1 cord blood and 1 mobilised peripheral blood donor), the “increase in VCN” value amounted to 100%. This compound also had a VCN increase with human HSPCs (dmPGE2 added at the time of thawing (t=−16 h)) of about 50%. Further, in data set [5], the “transduction by lentiviral vectors” value was “more efficient transduction”.
